Assay results from publication PMC6211292 (Journal of the American Chemical Society, 2018).

Key:
[1] = biological target: T1, PtmO5 (Streptomyces platensis, UniProt D8L2V0); assay: type I difference spectra titration, nonlinear regression of A390-A422; assay type: binding; settings: 0-5 μM ligand; type I shift 422 to 390 nm; heme site
T1 sequence (D8L2V0 1-430): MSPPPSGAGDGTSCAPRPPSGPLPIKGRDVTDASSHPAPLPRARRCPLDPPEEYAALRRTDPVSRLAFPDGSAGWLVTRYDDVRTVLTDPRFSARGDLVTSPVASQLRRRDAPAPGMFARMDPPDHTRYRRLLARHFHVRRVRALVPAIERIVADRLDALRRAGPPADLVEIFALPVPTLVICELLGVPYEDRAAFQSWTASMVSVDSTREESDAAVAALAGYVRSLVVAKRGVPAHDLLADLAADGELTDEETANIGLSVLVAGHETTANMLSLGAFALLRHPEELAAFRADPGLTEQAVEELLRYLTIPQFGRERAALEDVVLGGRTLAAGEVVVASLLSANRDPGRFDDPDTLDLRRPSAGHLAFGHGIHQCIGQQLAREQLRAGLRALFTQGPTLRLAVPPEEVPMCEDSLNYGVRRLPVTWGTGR

[2] = biological target: T1, PtmO5; assay: type I binding spectra; settings: heme site, poor solubility of 4

Row | Compound | Kd [1] [nM] | Kd [2] [nM]
1 | C[C@@]12CCC[C@@](C)(C(=O)O)[C@H]1CC[C@@]13C[C@@H](CC[C@H]12)[C@](C)(O)C3 [compound 1, (16R)-hydroxy-ent-kauran-19-oic acid] | 860 ± 70 | –
2 | C=C1C[C@@]23CC[C@H]4[C@@](C)(CCC[C@@]4(C)C(=O)O)[C@@H]2CC[C@@H]1C3 [compound 4, ent-kaur-16-en-19-oic acid] | – | 750 ± 190
